These are literature values, as cited in patent publication EP3473244A1, “CONTROLLED RELEASE ORAL TAMSULOSIN HYDROCHLORIDE” (Veru Inc., priority 2017, dated 2019).

Molecules are shown by their SMILES.

For the data set the following is noted: reported value used to set PK sampling times.

As for `CCOc1ccccc1OCCN[C@H](C)Cc1ccc(OC)c(S(N)(=O)=O)c1` [Tamsulosin], the “T ½” value is 5 h.
